{"source": "patent US7183238B2", "about": "“[1,2]-oxazine-3,5-diones” (Bayer CropScience AG, priority 2001, dated 2007)", "type_in_all_cases": "in vivo", "key": {"[1]": {"tested_on": "greenhouse red spider mite (Tetranychus urticae)", "assay": "Tetranychus test (OP-resistant/dip treatment)", "details": "100 ppm active compound, OP-resistant, infested bean plants (Phaseolus vulgaris) dipped", "experimental": "Tetranychus Test (OP-Resistant/dip Treatment)\n• Solvent: 7 parts by weight of dimethylformamide • Emulsifier: 2 parts by weight of alkylaryl polyglycol ether\nTo produce a suitable preparation of active compound, 1 part by weight of active compound is mixed with the stated amounts of solvent and emulsifier, and the concentrate is diluted with emulsifier-containing water to the desired concentration.\nBean plants (Phaseolus vulgaris) which are heavily infested by all stages of the greenhouse red spider mite (Tetranychus urticae) are dipped into a preparation of active compound of the desired concentration.\nAfter the desired period of time, the effect in % is determined. 100% means that all spider mites have been killed; 0% means that none of the spider mites has been killed."}, "[2]": {"tested_on": "larvae of the mustard beetle (Phaedon cochleariae)", "assay": "Phaedon larvae test", "details": "500 ppm active compound, cabbage leaves (Brassica oleracea) dipped", "experimental": "(§1) Phaedon Larvae Test • Solvent: 7 parts by weight of dimethylformamide • Emulsifier: 2 parts by weight of alkylaryl polyglycol ether To produce a suitable preparation of active compound, 1 part by weight of active compound is mixed with the stated amounts of solvents and emulsifier, and the concentrate is diluted with emulsifier-containing water to the desired concentration. Cabbage leaves (Brassica oleracea) are treated by being dipped into the preparation of active compound of the desired concentration and are populated with larvae of the mustard beetle (Phaedon cochleariae) while the leaves are still moist. After the desired period of time, the kill in % is determined. 100% means that all beetle larvae have been killed; 0% means that none of the beetle larvae has been killed."}, "[3]": {"tested_on": "caterpillars of the armyworm (Spodoptera frugiperda)", "assay": "Spodoptera frugiperda test", "details": "500 ppm active compound, cabbage leaves (Brassica oleracea) dipped", "experimental": "as §1, with “Spodoptera frugiperda” for “Phaedon Larvae”, “solvent” for “solvents”, “caterpillars” for “larvae”, “armyworm (Spodoptera frugiperda)” for “mustard beetle (Phaedon cochleariae)”, “caterpillars” for “beetle larvae”"}}, "data": [{"smiles": "Cc1ccc(-c2ccc(Cl)cc2)cc1C1=C(OC(=O)OCC(C)C)C(C)(C)ON(C)C1=O", "note": "[Example I-c-1]", "values": [{"measurement": "Kill rate in % after 7^d", "setting": "[1]", "result": 98, "unit": "%"}, {"measurement": "Kill rate in % after 7^d", "setting": "[2]", "result": 100, "unit": "%"}, {"measurement": "Kill rate in % after 7^d", "setting": "[3]", "result": 100, "unit": "%"}]}]}
